Holding throughout (format): physicochemical
Data set [1] can be described thus: Granulation simulation / dry grinding experiment. Particulars: for form change under dry grinding: XRPD and/or DSC. The procedure: Behavior under granulation simulation experiment: The physical stability of crystalline forms A and HA were also evaluated in granulation simulation experiments. In these experiments granulating solvent was added dropwise to the crystalline form A or HA until the solid is wetted sufficiently. The mixture was then vortexed between each addition at 25° C. Alternatively, dry grinding was carried out. The crystallinity of the material (post-grinding) was re-evaluated by XRPD and/or DSC.

A short description of data set [2]: Solid state stability in bulk and with excipient mixtures. Conditions: bulk: 1 week 80° C., 50° C., 80° C.-75% RH, 50° C.-75% RH; excipient mixtures EM1, EM2, HGC, HMPC: 2 weeks 50° C. with or without 75% RH; HPLC and XRPD. The procedure: A stability and excipient compatibility study was performed on form A and form HA. Both forms were subject to various test conditions as described below: • Test conditions in bulk: 1 week in a tight container at 80° C., 50° C., 80° C.-75% RH or 50° C.-75% RH. • Test condition with excipient mixtures (EM) • a. 1% of form A or form HA in EM1 for 2 weeks at 50° C. • b. 1% of form A or form HA in EM2 for 2 weeks at 50° C. • c. 10% of form A or form HA in crushed hard gelatin capsule (HGC) for 2 weeks at 50° C. • d. 10% of form A or form HA in crushed Hydroxypropyl Methyl Cellulose (HMPC) for 2 weeks at 50° C. • e. 1% of form A or form HA in EM1 for 2 weeks at 50° C. and 75% RH • f. 1% of form A or form HA in EM2 for 2 weeks at 50° C. and 75% RH • g. 10% of form A or form HA in crushed HGC for 2 weeks at 50° C. and 75% RH • h. 10% of form A or form HA in crushed HMPC for 2 weeks at 50° C. and 75% RH • EM1: Excipient mixture 1: Lactose spray dried (53%), Microcrystalline Cellulose (MCC) PH102 (40%), Crospovidone XL (5%), Aerosil (0.5%), Magnesium stearate (1.5%) • EM2: Excipient mixture 2: Mannitol DC (68%), MCC PH102 (26%), Ac-Di-Sol (4%), Aerosil (0.5%), Magnesium stearate (1.5%)
The degradation products were analyzed by HPLC and the sample was analyzed by XPRD to detect any changes to the solid state.

A short description of data set [3]: Competitive solvent equilibration of form A and form HA. Particulars: 1:1 mixture of form A and form HA suspended in solvents, 25-50° C., seven days, XRPD/DVS. How it is done:
Competitive equilibrations were carried out to investigate the relative stability of form A and HA in a competitive solvent equilibration. A 1:1 mixture of form A and form HA was prepared and suspended in various solvents or mixture thereof at temperature between 25° C. and 50° C. for seven days. The resulting suspension was filtered and analyzed by XRPD/DVS.

Data set [4] can be described thus: Solubility. The procedure:
Form A is highly soluble at pH values of 4.7 and below (solubility higher than 2 mg/mL), however, at higher pH levels, formation of less soluble form HA leads to lower solubility values.

Data set [5] is described as follows: Behavior under compression (physical stability). Particulars: 100 mg compressed 5 minutes at 10 tons. The procedure: Behavior under compression: The physical stability of each crystalline form (Form A or Form HA) was also evaluated.
100 mg of the crystalline form was compressed for 5 minutes at 10 tons with a hydraulic press (diameter of the tablets 8 mm). The sample was then characterized by XRPD to detect any change in the solid state.

Data set [6] can be described thus: Hygroscopicity / behaviour under humidity (DVS). Conditions: for behaviour at high humidity: above 70% RH. The text has this: Crystalline form A is an anhydrous form of (S)—N-(4-((5-(1,6-dimethyl-1H-pyrazolo[3,4-b]pyridin-4-yl)-3-methyl-4,5,6,7-tetrahydro-1H-pyrazolo[4,3-c]pyridin-1-yl)methyl)bicyclo[2.2.2]octan-1-yl)morpholine-3-carboxamide that is highly crystalline consisting of thin tabular particles.
Crystalline form HA is a hydrated form of (S)—N-(4-((5-(1,6-dimethyl-1H-pyrazolo[3,4-b]pyridin-4-yl)-3-methyl-4,5,6,7-tetrahydro-1H-pyrazolo[4,3-c]pyridin-1-yl)methyl)bicyclo[2.2.2]octan-1-yl)morpholine-3-carboxamide.

The nature of data set [7]: Stability under light exposure. Particulars: exposure to 1200 kLux at 25° C.
Data set [8] in a line: Corrosivity assessment of salt form. The text has this:
The criteria for selection are toxicological considerations, crystallinity, melting point, hygroscopicity, stability in bulk, compatibility with excipients, pH of aqueous solution, solubility in water and aqueous media, morphology, handling and polymorphic behavior.

Converted amounts (≈) assume the structure as drawn. Where a name gives a salt, the structure may show the parent alone. Where only a bound is given, the exact number is not on record here.

Regarding `Cc1cc(N2CCc3c(c(C)nn3CC34CCC(NC(=O)[C@@H]5COCCN5)(CC3)CC4)C2)c2cnn(C)c2n1` [Form A, (S)—N-(4-((5-(1,6-dimethyl-1H-pyrazolo[3,4-b]pyridin-4-yl)-3-methyl-4,5,6,7-tetrahydro-1H-pyrazolo[4,3-c]pyridin-1-yl)methyl)bicyclo[2.2.2]octan-1-yl)morpholine-3-carboxamide], the “form change under dry grinding” value in data set [1] (listed as Modification A) is reported as “stable”. The “form change upon granulation” value in data set [1] (granulation with water) is reported as “partially changed”. Further, in data set [2], the “stability in bulk state and with excipients” value is given as “good stability”. Besides, the “water activity (aw) at which form A transforms into form HA” value in data set [3] is listed as ~0.25. Also, in data set [4] (pH 4.7, aqueous buffer, pH values of 4.7 and below), the solubility is > 2000 µg/mL. The “change of crystalline form under compression (XRPD)” value in data set [5] was “No change of crystalline form”. The “behaviour at high humidity” value in data set [6] (listed as form A) is listed as “transforms into the hydrate crystalline form HA”. Further, in data set [6] (up to 70% RH), the hygroscopicity entry is “slightly hygroscopic” and the moisture uptake is given as 1.3%. In addition, in data set [7], the “physical and chemical stability under light exposure” value was “good physical and chemical stability”.
Regarding `Cc1cc(N2CCc3c(c(C)nn3CC34CCC(NC(=O)[C@@H]5COCCN5)(CC3)CC4)C2)c2cnn(C)c2n1` [Form HA, (S)—N-(4-((5-(1,6-dimethyl-1H-pyrazolo[3,4-b]pyridin-4-yl)-3-methyl-4,5,6,7-tetrahydro-1H-pyrazolo[4,3-c]pyridin-1-yl)methyl)bicyclo[2.2.2]octan-1-yl)morpholine-3-carboxamide], the “form change under dry grinding” value in data set [1] is “no form change”. For the same compound, in data set [1] (ethanol and water as granulation solvent, 25° C., XRPD), the “form change upon granulation” value is reported as “no form change”. In addition, in data set [4] (aqueous buffers in bio-relevant media, aqueous buffer), the solubility was ~4 µg/mL (≈ 7.51 µM). For the same compound, the “behaviour at low humidity” value in data set [6] (below 20% RH, rehydrates to form HA at 30% RH) is recorded as “dehydrates to a non-characterized anhydrate form”. For the same compound, the hygroscopicity result in data set [6] (humidities above 30% RH) was “slightly hygroscopic”.
In the case of `Cc1cc(N2CCc3c(c(C)nn3CC34CCC(NC(=O)[C@@H]5COCCN5)(CC3)CC4)C2)c2cnn(C)c2n1` [HCl salt, (S)—N-(4-((5-(1,6-dimethyl-1H-pyrazolo[3,4-b]pyridin-4-yl)-3-methyl-4,5,6,7-tetrahydro-1H-pyrazolo[4,3-c]pyridin-1-yl)methyl)bicyclo[2.2.2]octan-1-yl)morpholine-3-carboxamide], the “behaviour at high humidity” value in data set [6] was “deliquescent”. Moreover, the corrosivity result in data set [8] is listed as “potential corrosivity”.

What is called solubility is the concentration that dissolves in the medium under given conditions. A lower solubility goes with little dissolved substance.

Values taken from patent US12084460B2, “Crystalline forms of a TLR7/TLR8 inhibitor” (NOVARTIS AG, priority 2018, dated 2024).
